Data: patent US20250262201A1, “COMPOUNDS AND METHODS USEFUL FOR STABILIZING PHENYLALANINE HYDROXYLASE MUTATIONS” (Agios Pharmaceuticals, Inc., priority 2022, published 2025)
Where two headings read alike, the source gives them in different places.

Target: T1, human PAH with the R408W mutation (Homo sapiens, UniProt P00439, R408W)
T1 construct: expressed in transfected cells
T1 sequence (P00439 1-452 R408W): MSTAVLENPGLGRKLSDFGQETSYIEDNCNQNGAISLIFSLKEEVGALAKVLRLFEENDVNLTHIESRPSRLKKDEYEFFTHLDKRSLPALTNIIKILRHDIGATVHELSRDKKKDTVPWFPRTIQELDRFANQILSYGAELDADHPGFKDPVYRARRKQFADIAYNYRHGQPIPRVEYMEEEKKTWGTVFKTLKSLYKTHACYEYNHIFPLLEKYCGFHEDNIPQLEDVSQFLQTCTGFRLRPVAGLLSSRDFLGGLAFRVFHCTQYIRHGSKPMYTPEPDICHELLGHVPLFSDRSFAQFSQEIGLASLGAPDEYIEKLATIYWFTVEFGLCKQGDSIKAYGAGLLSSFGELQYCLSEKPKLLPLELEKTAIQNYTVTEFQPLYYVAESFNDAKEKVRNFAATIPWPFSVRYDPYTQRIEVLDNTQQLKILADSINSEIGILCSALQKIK
Test: Cell Based Phenylalanine Flux Assay
Parameters: scale not given here

[1] = A375 R408W cells, 24 hrs with compound, then 20 μM sepiapterin and 800 μM 13C9,15N-Phenylalanine for 4 hours, 13C-Tyrosine by LC-MS, average where tested multiple times, read-out: AC50
[2] = A375 R408W cells, 24 hrs with compound, then 20 μM sepiapterin and 800 μM 13C9,15N-Phenylalanine for 4 hours, 13C-Tyrosine by LC-MS, average where tested multiple times

SMILES | AC50 [1] | AC50 [2] | also measured
O=C(c1nnc(-c2cnn(S(=O)(=O)C3CC3)c2)o1)N1CCc2[nH]cnc2[C@H]1c1cc2ccccc2cn1 | > 5 µM | – | –
Cc1c(-c2nnc(C(=O)N3C[C@@H](C)c4[nH]cnc4[C@@H]3c3cc4ccccc4cn3)o2)cnn1C | 1 to 5 µM | – | –
C[C@@H]1CN(C(=O)c2nnc(C3(C)CC3)o2)[C@@H](c2cc3ccccc3cn2)c2nc[nH]c21 | 1 to 5 µM | – | –
Cc1nnc(CC(=O)N2CCc3[nH]cnc3C2c2cn3ccccc3n2)o1 (centres unmarked) | – | E, E | –
Cc1ocnc1CC(=O)N1CCc2[nH]cnc2C1c1cn2ccccc2n1 (centres unmarked) | – | E, E | –
O=C(CC1(O)CCC1)N1CCc2[nH]cnc2C1c1cn2ccccc2n1 (centres unmarked) | – | E, E | –
CC(C)(O)c1ccc2c(C(=O)N3CCc4[nH]cnc4C3c3ccc4ccccc4n3)cnn2c1 (centres unmarked) [listing 1 of 2 here] | 1 to 5 µM | – | –
CC(C)(O)c1nc(C2CC2)c(C(=O)N2CCCc3[nH]cnc3C2c2cc3ccccc3cn2)o1 (centres unmarked) | 1 to 5 µM | – | –
CC(C)(O)c1nc(C2CC2)c(C(=O)N2CCc3[nH]cnc3C2c2ccc3ccccc3n2)o1 (centres unmarked) | 1 to 5 µM | – | –
Cn1nc(C(=O)N2CCc3[nH]cnc3C2c2ccc3ccccc3n2)c2ccccc21 (centres unmarked) | 1 to 5 µM | – | –
O=C(c1n[nH]c2ccccc12)N1CCc2[nH]cnc2C1c1ccc2ccccc2n1 (centres unmarked) [listing 1 of 2 here] | 1 to 5 µM | – | –
O=C(c1nsc2ccccc12)N1CCc2[nH]cnc2C1c1ccc2ccccc2n1 (centres unmarked) | > 5 µM | – | –
O=C(c1cnco1)N1CCc2[nH]cnc2C1c1ccc2ccccc2n1 (centres unmarked) [listing 1 of 2 here] | 1 to 5 µM | – | –
O=C(c1ocnc1-c1ccccn1)N1CCc2[nH]cnc2C1c1ccc2ccccc2n1 (centres unmarked) | 1 to 5 µM | – | –
CC(C)(O)c1ncc(C(=O)N2CCc3[nH]cnc3C2c2ccc3ccccc3n2)s1 (centres unmarked) [listing 1 of 2 here] | 1 to 5 µM | – | –
CC(C)(O)c1ncc(C(=O)N2CCc3[nH]cnc3C2c2ccc3ccccc3n2)o1 (centres unmarked) | 1 to 5 µM | – | –
Cc1ncoc1C(=O)N1CCc2[nH]cnc2C1c1ccc2ccccc2n1 (centres unmarked) | 1 to 5 µM | – | –
CN1CCN(c2nnc(C(=O)N3CCc4[nH]cnc4C3c3ccc4ccccc4n3)o2)CC1 (centres unmarked) [listing 1 of 2 here] | 1 to 5 µM | – | –
Cn1ncc(C(=O)N2CCc3[nH]cnc3C2c2ccc3ccccc3n2)c1C(F)F (centres unmarked) | – | – | AC50: 1 to 5 µM
FC(F)c1nnc(N2CCc3[nH]cnc3C2c2ccc3ccccc3n2)o1 (centres unmarked) | 1 to 5 µM | – | –
O=C(c1nnc(N2CCOCC2)o1)N1CCc2[nH]cnc2C1c1ccc2ccccc2n1 (centres unmarked) [listing 1 of 2 here] | 1 to 5 µM | – | –
Cc1nnc(C(=O)N2CCc3[nH]cnc3C2c2ccc3ccccc3n2)o1 (centres unmarked) [listing 1 of 2 here] | 1 to 5 µM | – | –

SMILES | AC50 [1] | AC50 [2] | also measured
CC(C)(F)c1ccc2c(C(=O)N3CCc4[nH]cnc4C3c3ccc4ccccc4n3)cnn2c1 (centres unmarked) [listing 1 of 2 here] | 1 to 5 µM | – | –
O=C(c1ncn2ccccc12)N1CCc2[nH]cnc2C1c1ccc2ccccc2n1 (centres unmarked) [listing 1 of 2 here] | 1 to 5 µM | – | –
O=C(c1cnn2ccccc12)N1CCc2[nH]cnc2C1c1ccc2ccccc2n1 (centres unmarked) | 1 to 5 µM | – | –
O=C(C1CC1)N1CCc2[nH]cnc2C1c1ccc2ccccc2n1 (centres unmarked) | 1 to 5 µM | – | –
O=C(Cc1cnn2ccccc12)N1CCc2[nH]cnc2C1c1ccc2ccccc2n1 (centres unmarked) | 1 to 5 µM | – | –
O=C(c1cncs1)N1CCc2[nH]cnc2C1c1cc2ccccc2cn1 (centres unmarked) | > 5 µM | – | –
Cc1nc(C(C)(C)F)oc1C(=O)N1CCc2[nH]cnc2C1c1cc2ccccc2cn1 (centres unmarked) | 1 to 5 µM | – | –
Cc1nc(C(C)(C)C)oc1C(=O)N1CCc2[nH]cnc2C1c1cc2ccccc2cn1 (centres unmarked) | 1 to 5 µM | – | –
O=C(c1ocnc1C1CC1)N1CCCc2[nH]cnc2C1c1cc2ccccc2cn1 (centres unmarked) | > 5 µM | – | –
Cn1cc(-c2nc(C3CC3)c(C(=O)N3CCCc4[nH]cnc4C3c3cc4ccccc4cn3)o2)cn1 (centres unmarked) | 1 to 5 µM | – | –
Cc1ncoc1C(=O)N1CCc2[nH]cnc2C1c1cc2ccccc2cn1 (centres unmarked) | 1 to 5 µM | – | –
FC(F)c1nnc(N2CCc3[nH]cnc3C2c2cc3ccccc3cn2)o1 (centres unmarked) | > 5 µM | – | –
O=C(c1nnc(-c2ccccn2)o1)N1CCCc2[nH]cnc2C1c1cc2ccccc2cn1 (centres unmarked) | 1 to 5 µM | – | –
FC(F)(F)c1cnc(N2CCc3[nH]cnc3C2c2cc3ccccc3cn2)nc1 (centres unmarked) | 1 to 5 µM | – | –
Cc1nnc(C(=O)N2CC(C)(C)c3[nH]cnc3C2c2cc3ccccc3cn2)o1 (centres unmarked) | 1 to 5 µM | – | –
Nc1nc(C(F)(F)F)c(C(=O)N2CCc3[nH]cnc3C2c2cn3ccccc3n2)o1 (centres unmarked) | – | E, E | –
CC(C)(O)c1nc(C(F)(F)F)c(C(=O)N2CCc3[nH]cnc3C2c2ccc3ccccc3n2)o1 (centres unmarked) | – | E, E | –
Cn1ccc(-c2nc(C(F)F)c(C(=O)N3CCc4[nH]cnc4C3c3ncc4ccccc4n3)o2)n1 (centres unmarked) | – | E, E | –
CN(C)Cc1ccc2c(C(=O)N3CC(C)(C)c4[nH]cnc4C3c3cc4ccccc4cn3)cnn2c1 (centres unmarked) | > 5 µM | – | –
CN(C)Cc1ccc2c(C(=O)N3CCc4[nH]cnc4C3c3ccc4ccccc4n3)cnn2c1 (centres unmarked) [listing 1 of 2 here] | 1 to 5 µM | – | –
O=C(c1ccn2ncccc12)N1CCc2[nH]cnc2C1c1ccc2ccccc2n1 (centres unmarked) | 1 to 5 µM | – | –
CC(C)(O)c1ccc2c(C(=O)N3CCc4[nH]cnc4C3c3cc4ccccc4cn3)cnn2c1 (centres unmarked) | > 5 µM | – | –

SMILES | AC50 [1] | AC50 [2] | also measured
CC(C)(O)c1ccc2c(C(=O)N3CCc4[nH]cnc4C3c3ccc4ccccc4n3)cnn2c1 (centres unmarked) [listing 2 of 2 here] | > 5 µM | – | –
CC(C)(O)c1nc(C(F)F)c(C(=O)N2CCc3[nH]cnc3C2c2ncc3ccccc3n2)o1 (centres unmarked) | – | E, E | –
O=C(c1n[nH]c2ccccc12)N1CCc2[nH]cnc2C1c1ccc2ccccc2n1 (centres unmarked) [listing 2 of 2 here] | > 5 µM | – | –
Cc1nc(C(=O)N2CCc3[nH]cnc3C2c2ncc3ccccc3n2)n(C)n1 (centres unmarked) | – | E, E | –
O=C(c1cnco1)N1CCc2[nH]cnc2C1c1ccc2ccccc2n1 (centres unmarked) [listing 2 of 2 here] | > 5 µM | – | –
Cn1cc(-c2nc(C(F)(F)F)c(C(=O)N3CCc4[nH]cnc4C3c3ncc4ccccc4n3)o2)cn1 (centres unmarked) | – | E, E | –
Cn1cnc(-c2nc(C(F)F)c(C(=O)N3CCc4[nH]cnc4C3c3ncc4ccccc4n3)o2)c1 (centres unmarked) | – | E, E | –
O=C(c1oc(-c2ncccn2)nc1C(F)F)N1CCc2[nH]cnc2C1c1ncc2ccccc2n1 (centres unmarked) | – | E, E | –
O=C(c1oc(-c2ccncn2)nc1C(F)F)N1CCc2[nH]cnc2C1c1ncc2ccccc2n1 (centres unmarked) | – | E, E | –
O=C(c1oc(-c2cncnc2)nc1C(F)F)N1CCc2[nH]cnc2C1c1ncc2ccccc2n1 (centres unmarked) | – | E, E | –
CC(C)(O)c1ncc(C(=O)N2CCc3[nH]cnc3C2c2cc3ccccc3cn2)o1 (centres unmarked) | 1 to 5 µM | – | –
CC(C)(O)c1nc(C(F)(F)F)c(C(=O)N2CCc3[nH]cnc3C2c2ncc3ccccc3n2)o1 (centres unmarked) | – | E, E | –
CC(C)(O)c1ncc(C(=O)N2CCc3[nH]cnc3C2c2ccc3ccccc3n2)s1 (centres unmarked) [listing 2 of 2 here] | > 5 µM | – | –
CN1CCN(c2nnc(C(=O)N3CCc4[nH]cnc4C3c3ccc4ccccc4n3)o2)CC1 (centres unmarked) [listing 2 of 2 here] | > 5 µM | – | –
O=C(c1nnc(N2CCOCC2)o1)N1CCc2[nH]cnc2C1c1ccc2ccccc2n1 (centres unmarked) [listing 2 of 2 here] | > 5 µM | – | –
Cc1nnc(C(=O)N2CCc3[nH]cnc3C2c2ccc3ccccc3n2)o1 (centres unmarked) [listing 2 of 2 here] | > 5 µM | – | –
CC(C)(F)c1ccc2c(C(=O)N3CCc4[nH]cnc4C3c3ccc4ccccc4n3)cnn2c1 (centres unmarked) [listing 2 of 2 here] | > 5 µM | – | –
O=C(c1ncn2ccccc12)N1CCc2[nH]cnc2C1c1ccc2ccccc2n1 (centres unmarked) [listing 2 of 2 here] | > 5 µM | – | –
O=C(c1ccnn1C(F)F)N1CCc2[nH]cnc2C1c1ncc2ccccc2n1 (centres unmarked) | – | E, E | –
O=C(c1oc(-c2ccccn2)nc1C(F)(F)F)N1CCc2[nH]cnc2C1c1ncc2ccccc2n1 (centres unmarked) | – | E, E | –
Cn1cc(-c2nc(C(F)F)c(C(=O)N3CCc4[nH]cnc4C3c3ncc4ccccc4n3)o2)cn1 (centres unmarked) | – | E, E | –
CN1CCN(c2nc(C(F)F)c(C(=O)N3CCc4[nH]cnc4C3c3ncc4ccccc4n3)o2)CC1 (centres unmarked) | – | E, E | –

SMILES | AC50 [1] | AC50 [2] | also measured
O=C(c1oc(-c2ccc(F)cn2)nc1C(F)F)N1CCc2[nH]cnc2C1c1ncc2ccccc2n1 (centres unmarked) | – | E, E | –
COc1ccc(-c2nc(C(F)F)c(C(=O)N3CCc4[nH]cnc4C3c3ncc4ccccc4n3)o2)nc1 (centres unmarked) | – | E, E | –
O=C(c1oc(-c2cnccn2)nc1C(F)F)N1CCc2[nH]cnc2C1c1ncc2ccccc2n1 (centres unmarked) | – | E, E | –
O=C(c1oc(-c2ccccn2)nc1C(F)F)N1CCc2[nH]cnc2C1c1ncc2ccccc2n1 (centres unmarked) | – | E, E | –
O=C(c1oc(-c2cccnc2)nc1C(F)F)N1CCc2[nH]cnc2C1c1ncc2ccccc2n1 (centres unmarked) | – | E, E | –
O=C(c1oc(-c2ccncc2)nc1C(F)F)N1CCc2[nH]cnc2C1c1ncc2ccccc2n1 (centres unmarked) | – | E, E | –
O=C(c1oc(N2CCOCC2)nc1C(F)F)N1CCc2[nH]cnc2C1c1ncc2ccccc2n1 (centres unmarked) | – | E, E | –
O=C(c1ocnc1C(F)F)N1CCc2[nH]cnc2C1c1ncc2ccccc2n1 (centres unmarked) | – | E, E | –
O=C(c1ocnc1C(F)(F)F)N1CCc2[nH]cnc2C1c1ncc2ccccc2n1 (centres unmarked) | – | E, E | –
CN(C)Cc1ccc2c(C(=O)N3CCc4[nH]cnc4C3c3ccc4ccccc4n3)cnn2c1 (centres unmarked) [listing 2 of 2 here] | > 5 µM | – | –
CN(C)Cc1ccc2c(C(=O)N3CC4(CC4)c4[nH]cnc4C3c3cc4ccccc4cn3)cnn2c1 (centres unmarked) | 1 to 5 µM | – | –
C[C@H](O)c1nnc(C(=O)N2CCc3[nH]cnc3[C@H]2c2cc3ccccc3cn2)o1 | 1 to 5 µM | – | –
CC1CN(C(=O)c2nnc(N3CCC(F)CC3)o2)C(c2cc3ccccc3cn2)c2nc[nH]c21 (centres unmarked) [listing 1 of 3 here] | 1 to 5 µM | – | –
CC1CN(C(=O)c2nnc(N3CCC(F)CC3)o2)C(c2cc3ccccc3cn2)c2nc[nH]c21 (centres unmarked) [listing 2 of 3 here] | 1 to 5 µM | – | –
Cc1nnc(C(=O)N2CC(C)c3[nH]cnc3C2c2cc3ccccc3cn2)o1 (centres unmarked) | 1 to 5 µM | – | –
CC1CN(C(=O)c2cnn3cc(CN(C)C)ccc23)C(c2cc3ccccc3cn2)c2nc[nH]c21 (centres unmarked) [listing 1 of 3 here] | 1 to 5 µM | – | –
CC1CN(C(=O)c2cnn3cc(CN(C)C)ccc23)C(c2cc3ccccc3cn2)c2nc[nH]c21 (centres unmarked) [listing 2 of 3 here] | > 5 µM | – | –
CC1CN(C(=O)c2nnc(N3CCC(F)CC3)o2)C(c2cc3ccccc3cn2)c2nc[nH]c21 (centres unmarked) [listing 3 of 3 here] | > 5 µM | – | –
CC1CN(C(=O)c2cnn3cc(CN(C)C)ccc23)C(c2cc3ccccc3cn2)c2nc[nH]c21 (centres unmarked) [listing 3 of 3 here] | 1 to 5 µM | – | –
COC(=O)N1CC(C(=O)N2CCc3[nH]cnc3[C@H]2c2cc3ccccc3cn2)C1 | 1 to 5 µM | – | –
